Results taken from publication PMC8571951, “An activity‐based bioprobe differentiates a novel small molecule inhibitor from a LOXL2 antibody and provides renewed promise for anti‐fibrotic therapeutic strategies” (Clinical and Translational Medicine, 2021).

Columns and labels:
Assay type in all cases: biochemical
LOXL3 = target: T1, LOXL3 (Homo sapiens, UniProt P58215); assay: Jump dilution assay, LOXL3; conditions: 10 × IC50 for 30 min, diluted 100x
T1 sequence (P58215 26-753): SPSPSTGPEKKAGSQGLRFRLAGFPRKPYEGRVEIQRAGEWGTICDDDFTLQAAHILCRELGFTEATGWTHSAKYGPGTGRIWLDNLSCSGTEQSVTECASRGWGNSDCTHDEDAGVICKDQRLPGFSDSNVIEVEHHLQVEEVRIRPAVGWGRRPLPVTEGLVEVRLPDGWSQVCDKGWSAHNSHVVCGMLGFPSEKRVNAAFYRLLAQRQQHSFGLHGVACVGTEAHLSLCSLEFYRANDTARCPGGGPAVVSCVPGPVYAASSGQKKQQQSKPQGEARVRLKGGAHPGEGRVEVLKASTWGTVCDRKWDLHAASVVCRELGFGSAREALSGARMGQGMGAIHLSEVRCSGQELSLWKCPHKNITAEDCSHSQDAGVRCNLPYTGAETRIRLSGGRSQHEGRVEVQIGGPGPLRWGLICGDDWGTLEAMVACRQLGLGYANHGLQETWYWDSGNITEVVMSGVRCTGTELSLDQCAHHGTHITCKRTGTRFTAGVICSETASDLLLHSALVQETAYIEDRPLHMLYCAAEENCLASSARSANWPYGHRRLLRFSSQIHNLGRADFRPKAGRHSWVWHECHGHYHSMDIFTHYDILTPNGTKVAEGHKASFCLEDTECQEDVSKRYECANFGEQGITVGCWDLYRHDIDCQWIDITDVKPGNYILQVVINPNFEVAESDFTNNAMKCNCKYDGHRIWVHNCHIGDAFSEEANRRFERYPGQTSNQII
Text: (§1) FIGURE 1 Characteristics of the activity‐based probe (ABP) PXS‐5878. (A) Chemical structure of PXS‐5878, with functional subunits denoted with different colours. The fluoroallylamine moiety (blue) was designed to interact with the lysine tyrosylquinone (LTQ) co‐factor within the lysyl oxidase active sites. An extended linker (green) was incorporated to provide optimal separation between the reactive functional group and the tag, avoiding unfavourable steric hindrance. Biotin was selected as a tag, with higher sensitivity found to be achieved using a double tag (red), resulting in PXS‐5878 as the preferred ABP. (B) Concentration‐dependent inhibition of recombinant human (rh) lysyl oxidase‐like 1‐4 (LOXL1‐4) and native bovine LOX in a standard Amplex Red assay with 30 min pre‐incubation; n = 3–4 independent experiments, standard error of mean (SEM). Native bovine LOX was used as a surrogate for human LOX as both enzymes have similar pharmacology for fluoroallylamines.[2], [9] (C) Irreversible nature of PXS‐5878 enzyme inhibition confirmed using a jump dilution assay. Enzyme (rh LOXL1, rh LOXL2 or LOXL3) was pre‐incubated with 10 × IC50 of PXS‐5878 for 30 min, then diluted 100x and remaining activity assessed by Amplex Red assay. […] Each value is an average of three experiments. […]

rh LOXL2 = target: T2, rh LOXL2 (Homo sapiens, UniProt Q9Y4K0); assay: Jump dilution assay, rh LOXL2
T2 sequence (Q9Y4K0 26-774): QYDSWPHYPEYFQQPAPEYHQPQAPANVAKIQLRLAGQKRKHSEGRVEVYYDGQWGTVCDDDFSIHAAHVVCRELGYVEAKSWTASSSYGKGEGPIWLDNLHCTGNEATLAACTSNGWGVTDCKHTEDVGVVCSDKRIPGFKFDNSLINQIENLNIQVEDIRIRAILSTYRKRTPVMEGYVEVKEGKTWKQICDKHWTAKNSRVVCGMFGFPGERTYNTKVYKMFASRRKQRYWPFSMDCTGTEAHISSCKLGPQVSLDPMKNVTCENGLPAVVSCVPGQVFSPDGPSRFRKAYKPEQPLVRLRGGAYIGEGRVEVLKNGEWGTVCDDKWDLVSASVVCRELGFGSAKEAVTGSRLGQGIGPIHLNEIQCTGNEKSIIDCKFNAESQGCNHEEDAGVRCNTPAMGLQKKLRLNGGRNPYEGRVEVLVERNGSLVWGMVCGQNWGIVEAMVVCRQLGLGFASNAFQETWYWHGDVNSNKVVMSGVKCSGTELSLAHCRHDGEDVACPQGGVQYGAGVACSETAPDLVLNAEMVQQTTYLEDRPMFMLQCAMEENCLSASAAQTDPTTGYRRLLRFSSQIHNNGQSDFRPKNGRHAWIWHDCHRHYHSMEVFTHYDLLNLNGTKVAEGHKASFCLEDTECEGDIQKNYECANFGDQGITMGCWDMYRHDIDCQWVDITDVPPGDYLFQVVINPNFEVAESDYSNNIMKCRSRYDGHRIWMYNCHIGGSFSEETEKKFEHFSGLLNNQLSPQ
Text: as §1, with “experiments. (D) Schematic representation of the assay development to detect lysyl oxidase activity by PXS‐5878 using a direct enzyme‐linked assay with lysyl oxidases as the target analyte. HRP: horseradish peroxidase; TMB: 3,3′,5,5′‐tetramethylbenzidine, a chromogenic substrate.” for “experiments.”
For fluoroallylamine-based inhibitors, replacement of fluorine with hydrogen (leading to the corresponding des-fluoro structures) results in a drop in potency and a switch from irreversible to reversible inhibition. […] (B) For PXS-5878, removal of the fluoro moiety in a simplified analogue results in a significant drop in potency for LOXL2, meaning (ir)reversibility cannot be accurately measured.

rh LOXL1 = target: T3, rh LOXL1 (Homo sapiens, UniProt Q08397); assay: Jump dilution assay, rh LOXL1; conditions: 10 × IC50 for 30 min, diluted 100x
T3 sequence (Q08397 96-574): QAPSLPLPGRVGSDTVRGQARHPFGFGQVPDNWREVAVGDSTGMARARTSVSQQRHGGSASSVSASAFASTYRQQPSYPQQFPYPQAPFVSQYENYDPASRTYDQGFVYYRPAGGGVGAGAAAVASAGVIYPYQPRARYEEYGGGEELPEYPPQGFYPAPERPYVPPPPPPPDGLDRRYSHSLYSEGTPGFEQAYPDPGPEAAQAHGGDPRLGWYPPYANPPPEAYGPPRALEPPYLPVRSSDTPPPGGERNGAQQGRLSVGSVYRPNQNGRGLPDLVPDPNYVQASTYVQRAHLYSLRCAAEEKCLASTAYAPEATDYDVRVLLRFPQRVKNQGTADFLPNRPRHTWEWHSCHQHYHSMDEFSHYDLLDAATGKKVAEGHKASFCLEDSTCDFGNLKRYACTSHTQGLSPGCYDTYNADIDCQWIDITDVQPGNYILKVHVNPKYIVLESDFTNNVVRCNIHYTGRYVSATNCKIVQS
Text: as §1

| Recovery of enzyme activity after jump dilution (LOXL3) | Recovery of enzyme activity after jump dilution (rh LOXL2; rh LOXL2, 10 × IC50 for 30 min, diluted 100x) | Recovery of enzyme activity after jump dilution (rh LOXL1) | Mode of inhibition (reversible/irreversible) of LOXL2 (rh LOXL2) | Structure (SMILES) |
| --- | --- | --- | --- | --- |
| Little to no recovery in enzyme activity | Little to no recovery in enzyme activity | Little to no recovery in enzyme activity |  | NC/C=C(\F)CS(=O)(=O)c1cccc(Cn2cc(-c3cc(OCCCc4cn(CCCCC[C@@H]5SC[C@@H]6NC(=O)N[C@@H]65)nn4)cc(OCCCc4cn(CCCCC[C@@H]5SC[C@@H]6NC(=O)N[C@@H]65)nn4)c3)nn2)c1 [PXS‐5878] |
|  |  |  | reversible inhibitor | CC(C)c1c(Cc2ccc(S(C)(=O)=O)nc2)c2ncccc2n1CC=CCN [des‐fluoro‐PXS‐5338] |
